From patent publication US4308201A, “Phenylalanylvalylarginine derivative, process for producing same and method for measuring activity of enzymes using same” (Torii & Co., Ltd., priority 1978, dated 1981)
Residues, ends and D or L forms follow the SMILES beside them. *: point of attachment. pNA = O=[N+]([O-])c1ccc(N*)cc1; Bz = O=C(c1ccccc1)*

Tests used:
Format in all cases: biochemical
thrombin = test: Measurement of the activity of thrombin with the compound as substrate (naphthol liberated, FVB colour, absorbance); conditions: for relative sensitivity, Thrombin: methods of Example 3 and Comparative Example 2, p-nitroanilide substrate = 1.0
Method: To 1.7 ml of 50 mM phosphate buffer solution (pH 7.0) were added 0.1 ml of thrombin at various concentrations and 0.2 ml of N-benzoyl-L-phenylalanyl-L-valyl-L-arginine 1-naphthyl ester hydrochloride solution (1.5 mM), and the resulting mixture was subjected to incubation at 25° C. for 30 min. The mixture was cooled in iced water, and 0.1 ml of 1% FVB was added thereto. The resulting mixture was allowed to stand at 0° C. for 10 min, and 1 ml of glacial acetic acid was further added thereto. The color thus developed was measured as absorbance (505 nm) by means of a spectrophotometer, thereby determining the amount of the naphthol liberated by hydrolysis with the enzyme. As a control, the buffer solution same as above but free from thrombin was used. The amount of the naphthol liberated corresponded to the activity of the enzyme.
To 0.1 ml of thrombin were added 0.3 ml of Nα-tosyl-L-arginine methyl ester hydrochloride solution (10 micromoles/0.4 ml of 5% DMSO) and 0.6 ml of phosphate buffer solution (pH 7.4), and the resulting mixture was subjected to incubation at 37° C. for 30 min, after which 1.5 ml of a hydroxylamine solution (a mixture of equal amounts of 2 M NH2 OH hydrochloride and 3.5 M NaOH) was added thereto. The resulting mixture was allowed to stand at room temperature for 15 min. Thereto were added 1 ml of 18% trichloroacetic acid solution, 1 ml of 4 N hydrochloric acid, and 1 ml of 10% ferric chloride solution. The resulting mixture was thoroughly stirred and then centrifuged at 3,000 r.p.m. for 10 min. The color thus developed of the supernatant was measured as absorbance (530 l nm) by means of a spectrophotometer. The value obtained corresponds to the amount of the substrate remaining unhydrolyzed with thrombin, and therefore, and activity of the enzyme corresponds to the difference between the value obtained when no enzyme was used (control) and the value obtained after the enzyme reaction.
To 2.15 ml of […] tris HCl buffer solution (pH 8.0) were added 0.1 ml of thrombin at various concentrations and 0.25 ml of an N-benzoyl-L-phenylalanyl-L-valyl-L-arginine p-nitroanilide hydrochloride solution (1mM/H2 O), and the resulting mixture was subjected to incubation at 37° C. for 30 min. To the mixture was added 0.3 ml of glacial acetic acid, and the color developed was measured as absorbance (405 nm) by means of a spectrophotometer.

Urokinase = test: Measurement of the activity of urokinase with the compound as substrate; conditions: methods of Example 3 and Comparative Example 2; p-nitroanilide substrate = 1.0
Kallikrein Tissue = test: Measurement of the activity of tissue kallikrein with the compound as substrate; conditions: methods of Example 3 and Comparative Example 2; p-nitroanilide substrate = 1.0
Factor Xa = test: Measurement of the activity of Factor Xa with the compound as substrate; conditions: methods of Example 3 and Comparative Example 2; p-nitroanilide substrate = 1.0
Kallikrein Plasma = test: Measurement of the activity of plasma kallikrein with the compound as substrate; conditions: methods of Example 3 and Comparative Example 2; p-nitroanilide substrate = 1.0

For `CC(C)[C@H](NC(=O)[C@H](Cc1ccccc1)NC(=O)c1ccccc1)C(=O)N[C@@H](CCCNC(=N)N)C(=O)Nc1ccc([N+](=O)[O-])cc1.Cl` [N-benzoyl-L-phenylalanyl-L-valyl-L-arginine p-nitroanilide hydrochloride, reference compound] (Bz-Phe-Val-Arg-pNA), the “relative sensitivity, Thrombin” value (thrombin) was 1.0, the “relative sensitivity, Urokinase” value (Urokinase) was 1.0 and the “relative sensitivity, Kallikrein Tissue” value (Kallikrein Tissue) was 1.0. For the same compound, the “relative sensitivity, Factor Xa” value (Factor Xa) was 1.0 and the “relative sensitivity, Kallikrein Plasma” value (Kallikrein Plasma) was 1.0.
`CC(C)[C@H](NC(=O)[C@H](Cc1ccccc1)NC(=O)c1ccccc1)C(=O)N[C@@H](CCCNC(=N)N)C(=O)Oc1cccc2ccccc12.Cl` [N-benzoyl-L-phenylalanyl-L-valyl-L-arginine 1-naphthyl ester hydrochloride] was tested, and the “relative sensitivity, Thrombin” value (thrombin) was 5.0, the “sensitivity relative to that of Nα-tosyl-L-arginine methyl ester” value (thrombin; thrombin activity measured with the compound as substrate) was “about 31 times” and the “detection sensitivity relative to Comparative Example 2” value (thrombin; versus N-benzoyl-L-phenylalanyl-L-valyl-L-arginine p-nitroanilide hydrochloride as substrate, standard curves of the drawing) was “about 5 times”. For the same compound, the “detection sensitivity relative to Comparative Example 1” value (thrombin; versus Nα-tosyl-L-arginine methyl ester hydrochloride as substrate (hydroxamate method), standard curves of the drawing) was “about 30 times”, the “relative sensitivity, Urokinase” value (Urokinase) was 40 and the “relative sensitivity, Kallikrein Tissue” value (Kallikrein Tissue) was 30. For the same compound, the “relative sensitivity, Factor Xa” value (Factor Xa) was 15 and the “relative sensitivity, Kallikrein Plasma” value (Kallikrein Plasma) was 12.5.
